The test system of the test is Human peripheral blood mononuclear cells (PBMC). In words: Cytokine induction in human cells (PBMC). The class given is cell-based. The note with it: for minimal effective concentration / MEC to Induce Cytokine TNF-alpha: human PBMC, 21-24 hours culture, lowest concentration giving cytokine level at least 2× negative control. How it is done: Whole blood was obtained from healthy human donors and collected by venipuncture into vacutainer tubes or syringes containing EDTA. Human peripheral blood mononuclear cells (PBMC) were purified from the whole blood by density gradient centrifugation. Histopaque 1077 (15 mL, Sigma, St. Louis, MO) was transferred to 6×50 mL sterile polypropylene conical tubes. The Histopaque was overlayed with 15-25 mL of blood diluted 1:2 in Hank's Balanced Salts Solution (HBSS) (Gibco, Life Technologies, Grand Island, NY). The tubes were then centrifuged at 1370 rpm for 30 minutes at 20° C., with no brake (400×g, GH 3.8A Rotor).
The interface (buffy coat) containing the PBMC was collected and placed in a new sterile 50 ml conical polypropylene centrifuge tube. The PBMC were mixed with an equal volume of HBSS (about 20 mL from the interface and about 20 mL of HBSS), and then centrifuged at 1090 rpm, 10 minutes, 20° C., with brake (270×g, GH 3.8A Rotor). After completing centrifugation, the cells were resuspended in 2-3 mL ACK Red blood cell lysis buffer (ammonium chloride potassium solution, Gibco, Life Technologies) and incubated for 2-5 minutes at 20° C. Next, HBSS (40 mL) was added to the cells, and the sample was centrifuged at 270×g for 10 minutes at 20° C. The supernatant was decanted, and the cell pellet was resuspended in 5 mL AIM V Medium (Gibco, Life Technologies). Cell aggregates and debris were removed by filtering the cell solution through a BD Falcon 70 micron nylon cell strainer (BD Biosciences, San Jose, CA).
The number of viable cells was determined by counting with a Miltenyi FACS instrument (Miltenyi Biotec Inc., San Diego, CA) or by using a hemocytometer. For determining cell viability with a hemocytometer, the cells were diluted 1/10 in 0.4% trypan blue and HBSS (specifically, 50 microliter of trypan blue+40 microliter of HBSS+10 microliter of cell solution were added to a microfuge tube and mixed). Ten microliters of the diluted cells were then applied to the hemocytometer, and the number of viable PBMC were determined by microscopy.
The PBMC sample was then resuspended in 96-well plates at a concentration of 8×10^5 cells/well in 0.1 mL of AIM-V medium. Each compound was solubilized in dimethyl sulfoxide (DMSO) to create a 3 mM stock solution. The stock solution was then further diluted with AIM-V medium to prepare the serial dilutions. The diluted compound (100 microliters) was then transferred to the PBMCs to produce testing sets with final compound concentrations of either 30, 10, 3.3, 1.1, 0.37, 0.12, 0.04, 0.01 micromolar (testing set A); 30, 10, 3.3, 1.1, 0.37, 0.12, 0.04 micromolar (testing set B); 100, 33.3, 11.1, 3.7, 1.2, 0.4 micromolar (testing set C); or 3.0, 1.0, 0.33, 0.11, 0.037, 0.012, 0.004, 0.0014 micromolar (testing set D). The plates also had both positive and negative controls. The negative control wells contained only AIM-V medium with no example compound. The positive control wells contained a control set of imiquimod serially diluted to concentrations of either 30, 10, 3.3, 1.1, 0.37, 0.12, 0.04, 0.01 micromolar (control set A); 30, 10, 3.3, 1.1, 0.37, 0.12, 0.04 micromolar (control set B); 100, 33.3, 11.1, 3.7, 1.2, 0.4 micromolar (control set C); or 3.0, 1.0, 0.33, 0.11, 0.037, 0.012, 0.004, 0.0014 micromolar (control set D). The concentrations used in the control set were selected to match the concentrations used in the testing set. The plates were then cultured at 37° C./5% CO2 for 21-24 hours. Cell-free supernatants were harvested by centrifuging the 96-well plates at 2100 rpm, 23° C. for 10 minutes. Approximately 160 microliters of the supernatant were then stored in a NUNC 96-well plate, covered with the compression cap and stored at −80° C. until the cytokine analysis was done.
IFN-alpha cytokine levels (picograms/mL) were measured by ELISA (human IFN-alpha, pan specific, Mabtech, Cincinnati, OH). […]

[1] abbreviates: ELISA, read-out: MEC to Induce Cytokine IFN-alpha.
Where [2] appears, read: multiplex bead assay, read-out: MEC to Induce Cytokine IFN-gamma.

Read-outs that look alike come from different tables or passages of the source.

On to `CCO[C@@H](C)[C@@H](n1cnc2c(N)nc3ccccc3c21)C(C)(C)O` [Example 13, (3R,4S)-3-(4-aminoimidazo[4,5-c]quinolin-1-yl)-4-ethoxy-2-methyl-pentan-2-ol], for which the minimal effective concentration under setting [1] came to 3.3 µM and the minimal effective concentration under setting [2] came to 10 µM. Where the note is “multiplex bead assay”, the “MEC to Induce Cytokine TNF-alpha” value was 10 µM.
`CCOC[C@H](n1cnc2c(N)nc3ccccc3c21)C(C)(C)O` [Example 6, (3S)-3-(4-aminoimidazo[4,5-c]quinolin-1-yl)-4-ethoxy-2-methyl-butan-2-ol]: the minimal effective concentration by setting is: under setting [1], above 100 µM; under setting [2], above 100 µM. Further, under “multiplex bead assay”, the “MEC to Induce Cytokine TNF-alpha” value is above 100 µM. Besides, the “activity toward cytokine production” value (statement in the description) is “inactive toward cytokine production”.
On to `CCOC[C@@H](n1c(CC)nc2c(N)nc3ccccc3c21)C(C)(C)O` [Example 8, (3R)-3-(4-amino-2-ethyl-imidazo[4,5-c]quinolin-1-yl)-4-ethoxy-2-methyl-butan-2-ol], for which the minimal effective concentration is, setting by setting: under setting [1], 10 µM; under setting [2], 3.3 µM.
`CCOC[C@H](C(C)C)n1c(C)nc2c(N)nc3ccccc3c21` [Example 3, 1-[(1S)-1-(ethoxymethyl)-2-methyl-propyl]-2-methyl-imidazo[4,5-c]quinolin-4-amine]: the minimal effective concentration came out at 0.37 µM under setting [1] and 1.1 µM under setting [2]. The “MEC to Induce Cytokine TNF-alpha” value (multiplex bead assay) is 0.37 µM.
As to `CCOC[C@@H](n1cnc2c(N)nc3ccccc3c21)C(O)(CC)CC` [Example 12, (2R)-2-(4-aminoimidazo[4,5-c]quinolin-1-yl)-1-ethoxy-3-ethyl-pentan-3-ol], the minimal effective concentration is, setting by setting: under setting [1], 0.04 µM; under setting [2], 0.12 µM.
`CCOC[C@@H](n1cnc2c(N)nc3ccccc3c21)C(C)(C)O` [Example 5, (3R)-3-(4-aminoimidazo[4,5-c]quinolin-1-yl)-4-ethoxy-2-methyl-butan-2-ol]: the minimal effective concentration reads like this: under setting [1], 0.12 µM; under setting [2], 0.12 µM. The “MEC to Induce Cytokine TNF-alpha” value (multiplex bead assay) is 0.04 µM.
For the molecule `CCOC[C@@H](C(C)C)n1cnc2c(N)nc3ccccc3c21` [Example 2, 1-[(1R)-1-(ethoxymethyl)-2-methyl-propyl]imidazo[4,5-c]quinolin-4-amine], the minimal effective concentration runs as follows: under setting [1], 3.3 µM; under setting [2], above 30 µM. The “MEC to Induce Cytokine TNF-alpha” value (multiplex bead assay) worked out at 3.3 µM.
On to `CCOC[C@H](n1cnc2c(N)nc3ccccc3c21)C(C)(C)C` [Example 10, 1-[(1R)-1-(ethoxymethyl)-2,2-dimethyl-propyl]imidazo[4,5-c]quinolin-4-amine], for which the minimal effective concentration under setting [1] came to 3 µM and the minimal effective concentration under setting [2] stood at 3 µM. The “MEC to Induce Cytokine TNF-alpha” value (multiplex bead assay) amounted to 3.0 µM.
For the molecule `CCOC[C@@H](n1cnc2c(N)nc3ccccc3c21)C(C)(C)C` [Example 9, 1-[(1S)-1-(ethoxymethyl)-2,2-dimethyl-propyl]imidazo[4,5-c]quinolin-4-amine], the minimal effective concentration under setting [1] was 0.004 µM and the minimal effective concentration under setting [2] came out at 0.012 µM. In addition, the “MEC to Induce Cytokine TNF-alpha” value (multiplex bead assay) was 0.004 µM.
In the case of `COC[C@@H](n1cnc2c(N)nc3ccccc3c21)C(C)(C)C` [Example 11, 1-[(1S)-1-(methoxymethyl)-2,2-dimethyl-propyl]imidazo[4,5-c]quinolin-4-amine], the minimal effective concentration by setting is: under setting [1], at most 0.4 µM; under setting [2], at most 0.4 µM. Moreover, the “MEC to Induce Cytokine TNF-alpha” value (multiplex bead assay) is at most 0.4 µM.
For the molecule `CCOC[C@H](C(C)C)n1cnc2c(N)nc3ccccc3c21` [Example 1, 1-[(1S)-1-(ethoxymethyl)-2-methyl-propyl]imidazo[4,5-c]quinolin-4-amine], the minimal effective concentration under setting [1] was at most 0.04 µM and the minimal effective concentration under setting [2] is at most 0.04 µM. Moreover, the “MEC to Induce Cytokine TNF-alpha” value (multiplex bead assay) was at most 0.04 µM.
Regarding `CCOC[C@@H](n1c(C)nc2c(N)nc3ccccc3c21)C(C)(C)O` [Example 7, (3R)-3-(4-amino-2-methyl-imidazo[4,5-c]quinolin-1-yl)-4-ethoxy-2-methyl-butan-2-ol], the minimal effective concentration under setting [1] worked out at 0.12 µM and the minimal effective concentration under setting [2] amounted to 0.37 µM.
As for `CCOC[C@@H](C(C)C)n1c(C)nc2c(N)nc3ccccc3c21` [Example 4, 1-[(1R)-1-(ethoxymethyl)-2-methyl-propyl]-2-methyl-imidazo[4,5-c]quinolin-4-amine], the minimal effective concentration under setting [1] came out at 10 µM and the minimal effective concentration under setting [2] was above 30 µM. Further, the “MEC to Induce Cytokine TNF-alpha” value (multiplex bead assay) is 10 µM.

Source of the values: patent US12540137B2, “N-1 branched alkyl ether substituted imidazo[4,5-c]quinoline compounds, compositions, and methods” (Solventum Intellectual Properties Company, priority 2018, dated 2026).
